The test system of the series is human plasma stability, LC/MS/MS, 180 min. The series is described as follows: human plasma degradation, percent remaining – biochemical, LC/MS/MS, 180 min, dry powder, ADME assay, late-stage follow-up (AID 1591). The following applies: at 1 µM; active compounds read low.

SMILES strings stand for the structures.

With `C=CCn1c(SCC(=O)c2ccc(O)c(O)c2)nnc1-c1ccccc1OC`, the percent remaining is 82.6%.

The record behind these values is PubChem BioAssay AID1591 (Sanford-Burnham Center for Chemical Genomics, 2009).
